Key:
Test in all cases: relative viability (nuclei count vs DMSO), 5 days (fraction); higher = more cells survive
NCI-H2228 = settings: first compound 4 µM
In short: (§1)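 Medians of duplicate plates are given as relative viability. That measure is the nuclei count in treated wells divided by the count in vehicle wells. Counts were taken on 4× images of lung cancer cell lines in 1536-well plates, 5 days after pin-tool dosing the day after seeding with one drug alone or a fixed anchor-drug dose plus five library-drug doses (not always all listed) in √10 steps.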

LXF-289 = system: LXF-289
In short: as §1

NCI-H522 = system: NCI-H522
In short: as §1

NCI-H1792 = system: NCI-H1792
In short: as §1

LC-2-ad = system: LC-2-ad
In short: as §1

RERF-LC-KJ = system: RERF-LC-KJ
In short: as §1

NCI-H1975 = system: NCI-H1975
In short: as §1

PC-3 [JPC-3] = system: PC-3 [JPC-3]
In short: as §1

NCI-H1915 = system: NCI-H1915
In short: as §1

SK-LU-1 = system: SK-LU-1
In short: as §1

NCI-H1734 = system: NCI-H1734
In short: as §1

LOU-NH91 = system: LOU-NH91
In short: as §1

HCC-78 = system: HCC-78
In short: as §1

`COc1cc(N2CCC(C(N)=O)CC2)ccc1Nc1nc(N)c(Cl)c(Nc2ccccc2S(=O)(=O)C(C)C)n1` [HG-5-88-01] + Cc1nc(Nc2ncc(C(=O)Nc3c(C)cccc3Cl)s2)cc(N2CCN(CCO)CC2)n1 [Dasatinib] (partner 0.075 µM) gave a relative viability (NCI-H2228) of 0.0733, a relative viability (LXF-289; first compound 0.04 µM) of 0.252 and a relative viability (LXF-289; first compound 0.1265 µM) of 0.198. It also gave a relative viability (LXF-289; first compound 0.4 µM) of 0.116, a relative viability (LXF-289; first compound 1.265 µM) of 0.132 and a relative viability (LXF-289; first compound 4 µM) of 0.11. For the same compound, the relative viability (NCI-H522; first compound 0.04 µM) was 1.02, the relative viability (NCI-H522; first compound 0.1265 µM) was 0.897 and the relative viability (NCI-H522; first compound 0.4 µM) was 0.813. It also gave a relative viability (NCI-H522; first compound 1.265 µM) of 0.781, a relative viability (NCI-H522; first compound 4 µM) of 0.849 and a relative viability (NCI-H1792; first compound 0.04 µM) of 0.959. The relative viability (NCI-H1792; first compound 0.1265 µM) was 0.693, the relative viability (NCI-H1792; first compound 0.4 µM) was 0.78 and the relative viability (NCI-H1792; first compound 4 µM) was 0.525. It also gave a relative viability (LC-2-ad; first compound 0.04 µM) of 0.633, a relative viability (LC-2-ad; first compound 0.1265 µM) of 0.469 and a relative viability (LC-2-ad; first compound 0.4 µM) of 0.261. It also gave a relative viability (LC-2-ad; first compound 1.265 µM) of 0.287, a relative viability (LC-2-ad; first compound 4 µM) of 0.205 and a relative viability (RERF-LC-KJ; first compound 0.04 µM) of 0.804. It also gave a relative viability (RERF-LC-KJ; first compound 0.1265 µM) of 0.81, a relative viability (RERF-LC-KJ; first compound 0.4 µM) of 0.671 and a relative viability (RERF-LC-KJ; first compound 1.265 µM) of 0.465. The relative viability (RERF-LC-KJ; first compound 4 µM) was 0.41, the relative viability (NCI-H1975; first compound 0.04 µM) was 0.358 and the relative viability (NCI-H1975; first compound 0.1265 µM) was 0.352. It also gave a relative viability (NCI-H1975; first compound 0.4 µM) of 0.284, a relative viability (NCI-H1975; first compound 1.265 µM) of 0.217 and a relative viability (NCI-H1975; first compound 4 µM) of 0.145. It also gave a relative viability (PC-3 [JPC-3]; first compound 0.04 µM) of 1.03, a relative viability (PC-3 [JPC-3]; first compound 0.1265 µM) of 0.982 and a relative viability (PC-3 [JPC-3]; first compound 0.4 µM) of 0.902. It also gave a relative viability (PC-3 [JPC-3]; first compound 1.265 µM) of 0.936, a relative viability (PC-3 [JPC-3]; first compound 4 µM) of 0.814 and a relative viability (NCI-H1915; first compound 0.04 µM) of 0.347. It also gave a relative viability (NCI-H1915; first compound 0.1265 µM) of 0.316, a relative viability (NCI-H1915; first compound 0.4 µM) of 0.295 and a relative viability (NCI-H1915; first compound 1.265 µM) of 0.314. The relative viability (NCI-H1915; first compound 4 µM) was 0.239, the relative viability (SK-LU-1; first compound 0.04 µM) was 0.178 and the relative viability (SK-LU-1; first compound 0.1265 µM) was 0.182. It also gave a relative viability (SK-LU-1; first compound 0.4 µM) of 0.106, a relative viability (SK-LU-1; first compound 1.265 µM) of 0.123 and a relative viability (SK-LU-1; first compound 4 µM) of 0.0874. For the same compound, the relative viability (NCI-H1734; first compound 0.04 µM) was 0.412, the relative viability (NCI-H1734; first compound 0.1265 µM) was 0.432 and the relative viability (NCI-H1734; first compound 0.4 µM) was 0.326. The relative viability (NCI-H1734; first compound 1.265 µM) was 0.358, the relative viability (NCI-H1734; first compound 4 µM) was 0.284 and the relative viability (LOU-NH91; first compound 0.04 µM) was 0.57. For the same compound, the relative viability (LOU-NH91; first compound 0.1265 µM) was 0.524, the relative viability (LOU-NH91; first compound 0.4 µM) was 0.493 and the relative viability (LOU-NH91; first compound 1.265 µM) was 0.321. It also gave a relative viability (LOU-NH91; first compound 4 µM) of 0.243, a relative viability (HCC-78; first compound 0.04 µM) of 0.356 and a relative viability (HCC-78; first compound 0.1265 µM) of 0.286. The relative viability (HCC-78; first compound 0.4 µM) was 0.22, the relative viability (HCC-78; first compound 1.265 µM) was 0.197 and the relative viability (HCC-78; first compound 4 µM) was 0.174.
